Data set [1] deals with COX-1/COX-2 (Homo sapiens) (UniProt P35354+P23219). Put plainly: Selectivity ratio of IC50 for COX-2 in human whole blood to COX-1 in human whole blood. The class given is tissue-based.
Data set [2] has as its target T1, Prostaglandin G/H synthase 2 (Homo sapiens, UniProt P35354).
T1 sequence (P35354 whole entry): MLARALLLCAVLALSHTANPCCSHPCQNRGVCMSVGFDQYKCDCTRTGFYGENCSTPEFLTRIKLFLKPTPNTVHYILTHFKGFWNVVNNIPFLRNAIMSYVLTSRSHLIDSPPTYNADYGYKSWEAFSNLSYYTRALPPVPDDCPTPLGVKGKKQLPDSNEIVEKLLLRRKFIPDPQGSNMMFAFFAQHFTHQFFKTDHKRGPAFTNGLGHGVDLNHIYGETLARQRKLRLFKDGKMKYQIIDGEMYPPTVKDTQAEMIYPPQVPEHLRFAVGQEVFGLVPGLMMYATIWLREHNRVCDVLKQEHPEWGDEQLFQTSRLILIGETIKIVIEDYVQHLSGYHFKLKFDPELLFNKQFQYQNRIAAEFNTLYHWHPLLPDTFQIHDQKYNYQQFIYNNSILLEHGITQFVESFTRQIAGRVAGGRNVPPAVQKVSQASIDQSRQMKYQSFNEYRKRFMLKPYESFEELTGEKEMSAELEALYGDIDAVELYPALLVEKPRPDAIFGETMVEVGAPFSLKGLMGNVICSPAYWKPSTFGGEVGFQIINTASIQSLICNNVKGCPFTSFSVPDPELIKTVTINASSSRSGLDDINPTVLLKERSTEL
Put plainly: Inhibition of COX-2 in human whole blood assessed as inhibition of LPS-induced plasma PGE2 level by radioimmunoassay.

Data set [3] has as its target T2, Prostaglandin G/H synthase 1 (Homo sapiens, UniProt P23219). Put plainly: Inhibition of COX-1 in human whole blood assessed as inhibition of serum TXB2 level after 1 hr by radioimmunoassay.
In data set [4] the target is T2, Prostaglandin G/H synthase 1. Put plainly: Irreversible inhibition of COX-1 in human THP1 cells assessed as inhibition of arachidonic acid-induced TXB2 formation at 100 uM incubated for 30 mins followed by compound washout measured 30 mins post arachidonic acid challenge by radioimmunoassay. It is filed as cell-based. Particulars: THP-1.
Data set [5] shares this target. Put plainly: Inhibition of COX-1 in human THP1 cells assessed as inhibition of arachidonic acid-induced TXB2 formation at 100 uM incubated for 30 mins prior to arachidonic acid challenge measured after 30 mins by radioimmunoassay relative to vehicle-treated control. The class given is cell-based. The following applies: THP-1.
For data set [6] the target is unchanged. The experiment in a line: Inhibition of COX-1 in human washed platelet assessed as inhibition of 10 uM arachidonic acid-induced TXB2 formation at 0.01 to 100 uM incubated for 25 mins prior to arachidonic acid challenge measured after 30 mins by radioimmunoassay.
Data set [7] shares this target. Put plainly: Inhibition of COX-1 (unknown origin) in platelet rich plasma assessed as inhibition of collagen-induced TXB2 formation incubated for 5 mins prior to collagen challenge measured for 5 mins by aggregometric analysis.
Data set [8] shares this target. The experiment in a line: Inhibition of COX-1 (unknown origin) in platelet rich plasma assessed as inhibition of arachidonic acid-induced TXB2 formation incubated for 5 mins prior to arachidonic acid challenge measured for 5 mins by aggregometric analysis.
Data set [9] shares this target. Put plainly: Inhibition of COX-1 (unknown origin) in platelet rich plasma assessed as inhibition of collagen-induced platelet aggregation at 10 uM incubated for 5 mins prior to collagen challenge measured for 5 mins by aggregometric analysis relative to vehicle-treated control.
The target is the same in data set [10]. Put plainly: Inhibition of COX-1 (unknown origin) in platelet rich plasma assessed as inhibition of collagen-induced platelet aggregation up to 3 uM incubated for 5 mins prior to collagen challenge measured for 5 mins by aggregometric analysis.
For data set [11] the target is unchanged. Put plainly: Inhibition of COX-1 (unknown origin) in platelet rich plasma assessed as inhibition of collagen-induced platelet aggregation incubated for 5 mins prior to collagen challenge measured for 5 mins by aggregometric analysis.
Data set [12] has the same target. Put plainly: Inhibition of COX-1 (unknown origin) in platelet rich plasma assessed as inhibition of arachidonic acid-induced platelet aggregation at 10 uM incubated for 5 mins prior to arachidonic acid challenge measured for 5 mins by aggregometric analysis relative to vehicle-treated control.
Data set [13] has the same target. The experiment in a line: Inhibition of COX-1 (unknown origin) in platelet rich plasma assessed as inhibition of arachidonic acid-induced platelet aggregation up to 3 uM incubated for 5 mins prior to arachidonic acid challenge measured for 5 mins by aggregometric analysis.
A short description of data set [14]: Binding affinity to human alpha1-acid glycoprotein by HPLC analysis relative to control. The class given is ADME. Particulars: pooled result: one value given for 2 cell lines, strains, targets or settings.
For data set [15], the target named is T2, Prostaglandin G/H synthase 1. Particulars: at 0.01 to 100 µM.
The target in data set [16] is Prostaglandin G/H synthase 2 (Homo sapiens) (UniProt P35354). The experiment in a line: Reversible inhibition of COX-2 in human MDA-MB-231 cells assessed as inhibition of arachidonic acid-induced PGE2 formation at 100 uM incubated for 30 mins followed by compound washout measured 30 mins post arachidonic acid challenge by radioimmunoassay.
For data set [17] the target is unchanged. The experiment in a line: Inhibition of COX-2 in human MDA-MB-231 cells assessed as inhibition of arachidonic acid-induced PGE2 formation at 100 uM incubated for 30 mins prior to arachidonic acid challenge measured after 30 mins by radioimmunoassay relative to vehicle-treated control.
For data set [18], the species on record is Mus musculus. The experiment in a line: Antithrombotic activity in LDLR-/- C57BL/6 mouse assessed as reduction of 11-dehydro-TXB2 level in urine at 30 mg/L after 18 weeks relative to vehicle-treated control. The class given is functional. Also on record: scale not given: the % may be the effect or the level left.
Data set [19] concerns Homo sapiens. The experiment in a line: Antithrombotic activity in human assessed as reduction of 11-dehydro-TXB2 level in urine at 100 mg/day administered 6 days measured for 24 hrs post last dose relative to vehicle-treated control. The class given is functional. Set-up: scale not given: the % may be the effect or the level left.
For data set [20], the target named is T2, Prostaglandin G/H synthase 1. The experiment in a line: Reversible inhibition of COX-1 in human THP1 cells assessed as inhibition of arachidonic acid-induced TXB2 formation at 100 uM incubated for 30 mins followed by compound washout measured 30 mins post arachidonic acid challenge by radioimmunoassay. Particulars: THP-1. The class given is cell-based.

For data set [21] the target is unchanged. Put plainly: Inhibition of COX-1 in human washed platelet assessed as rightward shift in 10 uM arachidonic acid-induced TXB2 formation at 0.01 to 100 uM incubated for 25 mins prior to arachidonic acid challenge measured after 30 mins by radioimmunoassay.
For data set [22] the target is unchanged. The experiment in a line: Inhibition of COX-1 (unknown origin) in platelet rich plasma assessed as inhibition of collagen-induced platelet aggregation at 30 uM incubated for 5 mins prior to collagen challenge measured for 5 mins by aggregometric analysis relative to vehicle-treated control.
Data set [23] shares this target. Put plainly: Inhibition of COX-1 (unknown origin) in platelet rich plasma assessed as inhibition of arachidonic acid-induced platelet aggregation at 30 uM incubated for 5 mins prior to arachidonic acid challenge measured for 5 mins by aggregometric analysis relative to vehicle-treated control.
The target in data set [24] is T3, Prostaglandin G/H synthase 2 (Homo sapiens) (UniProt P35354).
T3 sequence (whole entry): T1 sequence (P35354 whole entry)
Put plainly: Inhibition of COX-2 in human whole blood assessed as inhibition of LPS-induced plasma PGE2 level at 1000 uM by radioimmunoassay relative to control.

The target of data set [25] is Prostaglandin G/H synthase 2 (Homo sapiens) (UniProt P35354). The experiment in a line: Irreversible inhibition of COX-2 in human MDA-MB-231 cells assessed as inhibition of arachidonic acid-induced PGE2 formation at 100 uM incubated for 30 mins followed by compound washout measured 30 mins post arachidonic acid challenge by radioimmunoassay.

The term IC50 denotes the point on the concentration scale where inhibition reaches its midpoint. One may read the inhibition as how much of the control response was suppressed.

Activity calls are given as the source filed them. No cut-off for these calls is given here.

T2 sequence (P23219 whole entry): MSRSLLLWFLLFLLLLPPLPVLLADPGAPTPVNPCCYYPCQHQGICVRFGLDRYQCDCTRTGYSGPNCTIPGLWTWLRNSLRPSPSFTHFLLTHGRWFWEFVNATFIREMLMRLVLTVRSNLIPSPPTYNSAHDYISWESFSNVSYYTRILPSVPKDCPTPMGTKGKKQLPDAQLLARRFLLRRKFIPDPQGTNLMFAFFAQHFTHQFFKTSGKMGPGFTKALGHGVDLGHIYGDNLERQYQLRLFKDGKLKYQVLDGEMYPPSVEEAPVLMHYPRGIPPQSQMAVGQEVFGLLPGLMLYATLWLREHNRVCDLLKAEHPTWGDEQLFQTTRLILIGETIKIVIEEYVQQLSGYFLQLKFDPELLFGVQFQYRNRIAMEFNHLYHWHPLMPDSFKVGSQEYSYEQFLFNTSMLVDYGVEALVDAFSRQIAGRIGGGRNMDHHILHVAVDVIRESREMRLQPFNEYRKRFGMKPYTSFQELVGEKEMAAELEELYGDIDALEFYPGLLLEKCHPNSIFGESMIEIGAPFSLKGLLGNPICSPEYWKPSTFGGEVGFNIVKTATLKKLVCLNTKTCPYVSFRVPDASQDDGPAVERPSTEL
Chain of COX-1/COX-2 (Homo sapiens) (P23219 whole entry, looked up, one chain of several): as the sequence (P23219 whole entry) above

Consider `OCc1onc(-c2ccc(Cl)o2)c1-c1ccccc1`, for which the Ratio IC50 in data set [1] is greater than 23.8. Besides, in [2], the concentration for half-maximal inhibition (IC50) is greater than 100 µM.
For the compound `Cc1onc(-c2ccc(Cl)o2)c1-c1ccccc1F`, the Ratio IC50 in data set [1] is greater than 52.6.
For `Cc1onc(C2CCCO2)c1-c1ccccc1` (stereo unspecified), the IC50 in data set [2] and in data set [3] was greater than 100 µM in each case.
For the compound `COC(=O)c1onc(-c2ccc(Cl)o2)c1-c1ccccc1`, in data set [1], the Ratio IC50 is greater than 5.21. Also, the IC50 in data set [2] is greater than 100 µM; in [3], 19.2 µM.
In the case of `Cc1onc(-c2ccc(Br)o2)c1-c1ccccc1`, the inhibition result in data set [4], in [6], in data set [15] and in data set [16] was “Active” in each case. The inhibition in data set [5] is greater than 90%; in data set [7] it was “Dose-dependent effect”; in data set [8] it was “Dose-dependent effect”; in [9], 78%; in data set [11], “Dose-dependent effect”; in data set [12], 96.3%. In addition, the inhibition in [17] came to 70%. In addition, the IC50 in data set [7] worked out at 7.6 µM; in data set [8], 3.4 µM; in [2] it was 34 µM; in data set [3], 0.33 µM. Also, the inhibition result in [10] and in data set [13] was “inactive” throughout. Besides, the Activity in [14] worked out at 96.1%. In addition, the Ratio IC50 in data set [1] was 103.
As to `Cc1onc(-c2ccccc2Cl)c1-c1ccccc1`, in data set [1], the Ratio IC50 came to 4.07. For the same compound, the IC50 in data set [2] came to 1.1 µM; in data set [3] it was 0.27 µM.
The corresponding values for `Cc1onc(-c2ccco2)c1-c1ccccc1` are 9.29, 20.4 µM and 2.2 µM.
The corresponding values for `Cc1onc(-c2cccc(Cl)c2)c1-c1ccccc1` are 0.21, 0.27 µM and 1.3 µM.
Take `CC(=O)Oc1ccccc1C(=O)O` [ASPIRIN]: the Activity in [18] and in data set [19] was 70% throughout. The inhibition entry in data set [4], in data set [6] and in data set [15] was “Active” each time. For the same compound, in data set [5], the inhibition is greater than 90%.
With `CC(=O)OCc1onc(-c2ccc(Cl)o2)c1-c1ccccc1`, the inhibition result in [20], in [21] and in data set [15] was “Active” each time. Further, the inhibition was greater than 90% in data set [5], 62% in data set [22], 97% in data set [23] and 40% in [24]. Also, the IC50 came out at 23 µM in data set [7], 20 µM in [8] and 5 µM in [3]. In addition, the Ratio IC50 in data set [1] was greater than 20. The inhibition entry in data set [17] is “inactive”.
As for `CC(C)Cc1ccc(C(C)C(=O)O)cc1` (stereo unspecified), in data set [20], the inhibition result was “Active”. In addition, the inhibition in data set [5] was greater than 90%.
On to `O=C(OCCCN1CCOCC1)c1onc(-c2ccc(Cl)o2)c1-c1ccccc1`, for which the IC50 in data set [2] and in [3] was greater than 100 µM throughout.
On to `Cc1ccc(-c2noc(C)c2-c2ccccc2)o1`, for which the inhibition result in data set [4], in data set [6], in data set [15] and in data set [25] was “Active” each time. The inhibition was greater than 90% in [5]; “Dose-dependent effect” in data set [7]; “Dose-dependent effect” in data set [8]; 66% in [9]; “Dose-dependent effect” in [11]; 97.8% in data set [12]. In addition, in data set [17], the inhibition stood at 70%. Further, the IC50 in data set [7] stood at 7.4 µM; in [8], 4.3 µM; in data set [2], 68.2 µM; in data set [3], 0.32 µM. For the same compound, the inhibition result in data set [10] and in [13] was “inactive” in each case. The compound also yielded an Activity in data set [14] of 94.7%. The Ratio IC50 in [1] is 213.
For `COC(=O)c1c(-c2ccc(Cl)o2)noc1-c1ccccc1`, the Ratio IC50 in data set [1] is greater than 5.75. Moreover, the IC50 in data set [2] was greater than 100 µM; in data set [3] it was 17.4 µM.
As to `O=C(OCCCO[N+](=O)[O-])c1onc(-c2ccc(Cl)o2)c1-c1ccccc1`, the IC50 in data set [2] and in data set [3] was greater than 100 µM each time.
In the case of `COC(=O)c1c(-c2ccccc2)noc1-c1ccccc1`, in data set [1], the Ratio IC50 is greater than 5.79. In addition, the half-maximal inhibitory concentration (IC50) in data set [2] is greater than 100 µM; in data set [3], 17.3 µM.
Consider `O=C(O)c1c(-c2ccccc2)noc1-c1ccccc1`, for which the 50% inhibitory concentration (IC50) in data set [2] and in data set [3] was greater than 100 µM throughout.
As for `Cc1onc(-c2ccc(Cl)o2)c1-c1ccccc1`, the half-maximal inhibitory concentration (IC50) in [7] is 18.6 µM; in data set [8], 12 µM. Moreover, the Activity in [14] is 95.7%.
On to `Cc1onc(-c2ccc(Cl)o2)c1-c1ccc(F)cc1`, for which the Ratio IC50 in data set [1] turned out to be 9.05. Further, the IC50 in [2] came to 17.2 µM.
Consider `O=C(O)c1c(-c2ccc(Cl)o2)noc1-c1ccccc1`, for which the half-inhibitory concentration (IC50) in data set [2] and in data set [3] was greater than 100 µM throughout.
Turning to `CC(=O)/C(=C(\N)c1ccc(Cl)o1)c1ccccc1`, the IC50 in data set [2] and in [3] was greater than 100 µM each time.
For `O=C(O)c1onc(-c2ccc(Cl)o2)c1-c1ccccc1`, the IC50 in data set [2] and in data set [3] was greater than 100 µM each time.
As for `CC(=O)/C(=C(\N)c1ccco1)c1ccccc1`, the Ratio IC50 in data set [1] was greater than 2.7. Further, the half-maximal inhibitory concentration (IC50) in data set [2] is greater than 100 µM; in data set [3] it was 37 µM.

(Values after ChEMBL document CHEMBL2380195 (J Med Chem, 2013).)
